Values quoted from earlier work, collected in patent publication US20240100117A1, “NUTRITION-BASED METHOD FOR MANAGING ANIMAL BEHAVIOR” (Morgenstern & Associates, LLC, priority 2022, published 2024).

Legend:
[1] = general reference values; at room temperature
[2] = system: conversion of 5-HTP to serotonin; details: supplementation, primate animal models

SMILES | viscosity [1] | conversion of 5-HTP to serotonin [2]
OCC(O)CO [glycerin] | about 950 cP | 
Cc1ncc(CO)c(CO)c1O [vitamin B6, pyridoxine] |  | increased the conversion of 5-HTP to serotonin
O [water] | about 1 cP | 
